PMC6265332, “A scalable peptide-GPCR language for engineering multicellular communication” (Nature Communications, 2018)
Where a SMILES comes first, the peptide text is derived from it.

System: fungal mating GPCRs (Ste2-like, xy.Ste2) expressed in S. cerevisiae strain JTy014
Type: cell-based, Ascomycete species of the code; expressed in S. cerevisiae
Conditions: GPCR of the same code; for Bttm (basal activation) / Span / Top (maximal activation): fit parameter of the dose-response curve, A600-normalised RFP fluorescence, 8 h, triplicate; for Fold Change: fold activation, peptide-treated maximum over water-treated A600-normalised fluorescence; for Hill Slope: four-parameter fit of the dose-response curve (dynamic range)

Compound | Bttm (basal activation) | Span | Top (maximal activation) | Fold Change | Hill Slope
CC[C@H](C)[C@H](NC(=O)[C@H](Cc1c[nH]c2ccccc12)NC(=O)CN)C(=O)NCC(=O)N[C@@H](CCCNC(=N)N)C(=O)N[C@@H](CS)C(=O)NCC(=O)N[C@H](C(=O)N1CCC[C@H]1C(=O)NCC(=O)N[C@@H](CO)C(=O)N[C@@H](CO)C(=O)N[C@@H](CS)C(=O)O)C(C)C [Bm] (H-GWIGRCGVPGSSC-OH; N-terminus and C-terminus assumed) | 30.3 | 128.4 | 158.8 | 5.2 | 1.2
FCWRPGQPCG [Pd, mature mating peptide ligand 1, Pseudogymnoascus destructans] | 28.8 | 161.2 | 190.0 | 6.6 | 0.7
KPHWTTYGYYEPQ [Cp, mature mating peptide ligand 1, Candida parapsilosis] | 36.2 | 217.8 | 254.0 | 7.0 | 0.8
QWCR---IHGQSCW [Nc, mature mating peptide ligand 1, Neurospora crassa] | 27.6 | 259.2 | 286.7 | 10.4 | 0.6
WCGHIGQGC [Pr, mature mating peptide ligand 1, Penicillium chrysogenum] | 27.9 | 179.4 | 207.3 | 7.4 | 0.6
WCGRPGQPC [Bc, mature mating peptide ligand 1, Botrytis cinerea] | 28.6 | 323.3 | 351.9 | 12.3 | 0.7
WCMRPGQPCW [Bb, mature mating peptide ligand 1, Beauvaria bassiana] | 25.2 | 218.9 | 244.1 | 9.7 | 1.0
WCTRPGQGC [Pb, mature mating peptide ligand 1, Paracoccidioides brasiliensis] | 20.2 | 196.9 | 217.1 | 10.8 | 0.5
WCYRIGEPCW [Hj, mature mating peptide ligand 1, Hypocrea jecorina] | 53.0 | 376.5 | 429.5 | 8.1 | 0.6
